Square brackets hold non-standard residues; d marks the D form. Peptide text beside a SMILES is read from it. Sar = CNCC(=O)O
Columns and labels:
Assay type in all cases: ADME
[1] = target: T1, Solute carrier organic anion transporter family member 1B3 (Homo sapiens, UniProt Q9NPD5); assay: Substrates of transporters of clinical importance in the absorption and disposition of drugs, OATP1B3
T1 sequence (Q9NPD5 whole entry): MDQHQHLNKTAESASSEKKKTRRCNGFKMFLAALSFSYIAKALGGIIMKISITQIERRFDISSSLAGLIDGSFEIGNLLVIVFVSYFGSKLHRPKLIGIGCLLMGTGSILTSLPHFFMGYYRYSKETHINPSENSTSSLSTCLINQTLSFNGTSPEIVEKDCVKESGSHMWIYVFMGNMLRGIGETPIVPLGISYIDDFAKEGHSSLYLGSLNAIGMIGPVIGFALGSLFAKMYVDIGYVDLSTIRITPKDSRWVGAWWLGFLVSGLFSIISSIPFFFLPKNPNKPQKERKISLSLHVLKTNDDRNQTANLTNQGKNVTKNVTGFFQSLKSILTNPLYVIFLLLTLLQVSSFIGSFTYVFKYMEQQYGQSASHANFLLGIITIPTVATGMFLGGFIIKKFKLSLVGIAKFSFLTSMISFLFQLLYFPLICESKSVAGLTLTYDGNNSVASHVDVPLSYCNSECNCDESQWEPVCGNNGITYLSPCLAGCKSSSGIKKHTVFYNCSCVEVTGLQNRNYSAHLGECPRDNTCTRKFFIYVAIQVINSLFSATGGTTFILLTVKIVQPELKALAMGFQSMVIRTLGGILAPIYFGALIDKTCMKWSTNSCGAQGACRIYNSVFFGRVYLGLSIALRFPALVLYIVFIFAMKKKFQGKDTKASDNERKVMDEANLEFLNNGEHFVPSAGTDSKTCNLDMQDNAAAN

[2] = target: T2, Solute carrier family 15 member 1 (Homo sapiens, UniProt P46059); assay: Substrates of transporters of clinical importance in the absorption and disposition of drugs, PEPT1
T2 sequence (P46059 whole entry): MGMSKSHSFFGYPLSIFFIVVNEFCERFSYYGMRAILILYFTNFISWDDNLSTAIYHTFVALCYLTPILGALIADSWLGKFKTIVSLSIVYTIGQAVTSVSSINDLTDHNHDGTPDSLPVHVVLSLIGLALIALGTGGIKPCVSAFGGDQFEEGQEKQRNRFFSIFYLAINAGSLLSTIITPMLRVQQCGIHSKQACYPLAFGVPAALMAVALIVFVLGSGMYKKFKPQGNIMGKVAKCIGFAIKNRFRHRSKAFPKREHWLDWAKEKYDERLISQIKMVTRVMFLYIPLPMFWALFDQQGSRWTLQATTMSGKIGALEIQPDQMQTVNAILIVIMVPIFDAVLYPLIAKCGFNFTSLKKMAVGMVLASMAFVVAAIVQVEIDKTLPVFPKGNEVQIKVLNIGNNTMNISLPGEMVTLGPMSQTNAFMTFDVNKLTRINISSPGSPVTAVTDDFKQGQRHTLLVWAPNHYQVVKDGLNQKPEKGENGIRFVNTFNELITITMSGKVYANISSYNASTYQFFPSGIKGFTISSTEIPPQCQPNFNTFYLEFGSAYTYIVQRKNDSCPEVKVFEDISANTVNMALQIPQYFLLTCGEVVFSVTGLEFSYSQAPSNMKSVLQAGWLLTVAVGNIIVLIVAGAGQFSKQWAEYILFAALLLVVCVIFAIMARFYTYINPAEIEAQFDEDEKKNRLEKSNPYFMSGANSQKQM

[3] = target: T3, Solute carrier family 15 member 2 (Homo sapiens, UniProt Q16348); assay: Substrates of transporters of clinical importance in the absorption and disposition of drugs, PEPT2
T3 sequence (Q16348 whole entry): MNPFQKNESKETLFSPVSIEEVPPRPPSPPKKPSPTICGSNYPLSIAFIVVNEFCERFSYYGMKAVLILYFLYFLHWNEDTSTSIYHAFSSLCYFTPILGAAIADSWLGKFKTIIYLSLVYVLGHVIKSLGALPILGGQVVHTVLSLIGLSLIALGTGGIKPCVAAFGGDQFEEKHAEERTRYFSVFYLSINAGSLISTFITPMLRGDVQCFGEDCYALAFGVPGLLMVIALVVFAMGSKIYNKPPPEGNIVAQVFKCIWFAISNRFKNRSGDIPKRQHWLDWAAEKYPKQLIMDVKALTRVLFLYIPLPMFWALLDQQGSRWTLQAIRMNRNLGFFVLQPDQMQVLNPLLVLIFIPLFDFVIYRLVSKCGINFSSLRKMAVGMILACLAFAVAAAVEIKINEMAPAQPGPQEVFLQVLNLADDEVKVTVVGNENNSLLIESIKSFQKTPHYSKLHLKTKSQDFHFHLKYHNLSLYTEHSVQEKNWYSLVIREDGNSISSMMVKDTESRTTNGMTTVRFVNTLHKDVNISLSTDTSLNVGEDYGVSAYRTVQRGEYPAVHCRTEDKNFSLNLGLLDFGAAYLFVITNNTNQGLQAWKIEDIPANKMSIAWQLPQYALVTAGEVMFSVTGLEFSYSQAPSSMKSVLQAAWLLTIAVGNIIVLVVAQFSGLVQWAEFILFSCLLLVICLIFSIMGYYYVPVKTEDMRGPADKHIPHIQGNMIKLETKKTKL

[4] = target: T4, Solute carrier family 22 member 2 (Homo sapiens, UniProt O15244); assay: Substrates of transporters of clinical importance in the absorption and disposition of drugs, OCT2
T4 sequence (O15244 whole entry): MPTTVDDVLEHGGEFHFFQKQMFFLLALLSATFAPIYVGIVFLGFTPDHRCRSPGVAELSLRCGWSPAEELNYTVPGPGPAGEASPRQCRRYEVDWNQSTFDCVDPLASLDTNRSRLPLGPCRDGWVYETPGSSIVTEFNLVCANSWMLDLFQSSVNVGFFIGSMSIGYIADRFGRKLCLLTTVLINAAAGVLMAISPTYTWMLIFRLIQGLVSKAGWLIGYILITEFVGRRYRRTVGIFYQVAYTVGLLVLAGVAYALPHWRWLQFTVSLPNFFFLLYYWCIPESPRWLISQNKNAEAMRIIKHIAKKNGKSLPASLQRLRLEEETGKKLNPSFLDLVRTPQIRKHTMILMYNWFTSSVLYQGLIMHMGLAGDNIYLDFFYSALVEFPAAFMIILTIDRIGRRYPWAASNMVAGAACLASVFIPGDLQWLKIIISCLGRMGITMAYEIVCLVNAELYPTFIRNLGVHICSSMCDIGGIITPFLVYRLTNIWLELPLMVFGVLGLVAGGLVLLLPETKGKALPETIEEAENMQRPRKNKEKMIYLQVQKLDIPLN

[5] = target: T5, Solute carrier organic anion transporter family member 1B1 (Homo sapiens, UniProt Q9Y6L6); assay: Substrates of transporters of clinical importance in the absorption and disposition of drugs, OATP1B1
T5 sequence (Q9Y6L6 whole entry): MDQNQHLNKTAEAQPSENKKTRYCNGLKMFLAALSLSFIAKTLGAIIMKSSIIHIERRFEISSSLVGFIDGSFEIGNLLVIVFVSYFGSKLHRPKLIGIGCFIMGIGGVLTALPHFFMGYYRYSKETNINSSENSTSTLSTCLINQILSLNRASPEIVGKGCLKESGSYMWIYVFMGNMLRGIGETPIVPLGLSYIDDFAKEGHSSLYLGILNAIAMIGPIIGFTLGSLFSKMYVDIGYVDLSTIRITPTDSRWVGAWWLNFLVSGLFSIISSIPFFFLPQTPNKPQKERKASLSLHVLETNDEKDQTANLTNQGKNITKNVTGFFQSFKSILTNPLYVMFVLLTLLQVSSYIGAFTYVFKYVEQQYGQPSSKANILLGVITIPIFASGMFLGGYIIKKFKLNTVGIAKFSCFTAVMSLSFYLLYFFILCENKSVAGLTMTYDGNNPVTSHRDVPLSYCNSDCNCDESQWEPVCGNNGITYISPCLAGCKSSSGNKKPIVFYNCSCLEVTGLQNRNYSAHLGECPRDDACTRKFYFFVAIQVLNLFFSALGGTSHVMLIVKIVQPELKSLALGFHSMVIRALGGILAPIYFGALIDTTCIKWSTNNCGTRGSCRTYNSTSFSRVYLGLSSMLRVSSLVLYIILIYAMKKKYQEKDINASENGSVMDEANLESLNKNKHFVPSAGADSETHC

[6] = target: T6, Solute carrier organic anion transporter family member 1A2 (Homo sapiens, UniProt P46721); assay: Substrates of transporters of clinical importance in the absorption and disposition of drugs, OATP1A2
T6 sequence (P46721 whole entry): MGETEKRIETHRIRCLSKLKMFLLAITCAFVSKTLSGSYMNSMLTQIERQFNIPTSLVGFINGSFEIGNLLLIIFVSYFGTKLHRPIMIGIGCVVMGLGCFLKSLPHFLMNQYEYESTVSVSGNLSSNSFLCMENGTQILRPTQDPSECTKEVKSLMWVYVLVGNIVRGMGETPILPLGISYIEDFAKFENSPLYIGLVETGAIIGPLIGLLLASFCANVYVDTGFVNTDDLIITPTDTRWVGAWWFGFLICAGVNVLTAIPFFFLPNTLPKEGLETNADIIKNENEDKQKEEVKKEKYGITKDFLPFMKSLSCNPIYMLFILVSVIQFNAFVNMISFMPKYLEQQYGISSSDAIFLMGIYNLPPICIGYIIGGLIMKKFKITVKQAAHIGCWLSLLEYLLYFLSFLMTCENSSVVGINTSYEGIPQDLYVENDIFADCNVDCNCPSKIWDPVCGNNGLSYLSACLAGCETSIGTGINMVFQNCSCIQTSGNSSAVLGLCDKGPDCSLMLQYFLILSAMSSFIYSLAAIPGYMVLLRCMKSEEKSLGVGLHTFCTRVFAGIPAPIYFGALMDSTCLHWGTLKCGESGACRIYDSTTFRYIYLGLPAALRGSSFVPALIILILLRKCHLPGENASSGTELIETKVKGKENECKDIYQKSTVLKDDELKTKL

`CCCc1nc2c(C)cc(-c3nc4ccccc4n3C)cc2n1Cc1ccc(-c2ccccc2C(=O)O)cc1` was tested, and the Activity [1] was “transporter substrate”.
In the case of `CCOC(=O)[C@H](CCc1ccccc1)N[C@@H](C)C(=O)N1CCC[C@H]1C(=O)O`, the Activity [2] is reported as “transporter substrate” and the Activity [3] is reported as “transporter substrate”.
In the case of `NC12CC3CC(CC(C3)C1)C2` [AMANTADINE], the Activity [4] is reported as “transporter substrate”.
In the case of `N=C(N)NC(=O)c1nc(Cl)c(N)nc1N` [AMILORIDE], the Activity [4] is reported as “transporter substrate”.
In the case of `NCC(=O)CCC(=O)O` [AMINOLEVULINIC ACID], the Activity [2] is reported as “transporter substrate” and the Activity [3] is reported as “transporter substrate”.
In the case of `C=CC1=C(C)/C(=C/c2[nH]c(Cc3[nH]c(/C=C4\NC(=O)C(C)=C4C=C)c(C)c3CCC(=O)O[C@@H]3O[C@H](C(=O)O)[C@@H](O)[C@H](O)[C@H]3O)c(CCC(=O)O[C@@H]3O[C@H](C(=O)O)[C@@H](O)[C@H](O)[C@H]3O)c2C)NC1=O` [BILIRUBIN GLUCURONIDE], the Activity [5] is reported as “transporter substrate”.
`C=CC1=C(C)/C(=C/c2[nH]c(Cc3[nH]c(/C=C4\NC(=O)C(C)=C4C=C)c(C)c3CCC(=O)O)c(CCC(=O)O)c2C)NC1=O` [BILIRUBIN] was tested, and the Activity [5] was “transporter substrate”.
With `CC1=C(C(=O)O)N2C(=O)[C@@H](NC(=O)[C@H](N)c3ccc(O)cc3)[C@H]2SC1` [CEFADROXIL] the Activity [2] was “transporter substrate” and the Activity [3] was “transporter substrate”.
With `CC1=C(C(=O)O)N2C(=O)[C@@H](NC(=O)[C@H](N)c3ccccc3)[C@H]2SC1` [CEPHALEXIN ANHYDROUS] the Activity [2] was “transporter substrate” and the Activity [3] was “transporter substrate”.
For `CN(CC(=O)O)C(=O)CN` [GLYCYLSARCOSINE] (H-Gly-[Sar]-OH), the Activity [2] was “transporter substrate” and the Activity [3] was “transporter substrate”.
`C[C@H]1COc2c(N3CCN(C)CC3)c(F)cc3c(=O)c(C(=O)O)cn1c23.C[C@H]1COc2c(N3CCN(C)CC3)c(F)cc3c(=O)c(C(=O)O)cn1c23.O` [LEVOFLOXACIN] was tested, and the Activity [6] was “transporter substrate”.
In the case of `C[C@@H]1O[C@@H](O[C@H]2C[C@@H](O)[C@]3(CO)[C@H]4[C@H](O)C[C@]5(C)[C@@H](C6=CC(=O)OC6)CC[C@]5(O)[C@@H]4CC[C@]3(O)C2)[C@H](O)[C@H](O)[C@H]1O` [OUABAIN], the Activity [6] is reported as “transporter substrate”.
With `CC(C)NCC(O)COc1cccc2[nH]ccc12` (stereo not given) [PINDOLOL] the Activity [4] was “transporter substrate”.
`CNC(=C[N+](=O)[O-])NCCSCc1ccc(CN(C)C)o1` [RANITIDINE] was tested, and the Activity [4] was “transporter substrate”.
In the case of `CCOc1cc(CC(=O)N[C@@H](CC(C)C)c2ccccc2N2CCCCC2)ccc1C(=O)O` [REPAGLINIDE], the Activity [5] is reported as “transporter substrate”.
In the case of `CSCC[C@H](NC(=O)[C@H](Cc1ccc(OS(=O)(=O)O)cc1)NC(=O)[C@@H](N)CC(=O)O)C(=O)NCC(=O)N[C@@H](Cc1c[nH]c2ccccc12)C(=O)N[C@@H](CCSC)C(=O)N[C@@H](CC(=O)O)C(=O)N[C@@H](Cc1ccccc1)C(N)=O` [SINCALIDE], the Activity [1] is reported as “transporter substrate”.
For `CCCc1nc2c(C)cc(-c3nc4ccccc4n3C)cc2n1Cc1ccc(-c2ccccc2C(=O)O[C@@H]2O[C@H](C(=O)O)[C@@H](O)[C@H](O)[C@H]2O)cc1` [TELMISARTAN GLUCURONIDE], the Activity [1] was “transporter substrate”.
In the case of `CC(C)C[C@H](NC(=O)[C@@H](O)[C@H](N)Cc1ccccc1)C(=O)O` [UBENIMEX], the Activity [2] is reported as “transporter substrate” and the Activity [3] is reported as “transporter substrate”.
`c1cnc2cc3c(cc2n1)[C@@H]1CNC[C@H]3C1` [VARENICLINE] was tested, and the Activity [4] was “transporter substrate”.

From ChEMBL document CHEMBL1743141, “Membrane transporters in drug development” (Nat Rev Drug Discov, 2010)
